The results in this text go back to patent US20030109549A1 (published 2003).

The structures appear in SMILES notation. Where a name gives a salt, the structure may show the parent alone.

Regarding `CS(=O)(=O)c1nc2ccccc2n1C1CCN(C2(c3ccccc3)CCCCCC2)CC1` (as salt: HCl), the melting point (as a rule, the temperature, or range, at which the solid turns liquid) was in the range of 155 to 158 °C. Under `OC1CCN(c2nc3ccccc3n2C2CCN(C3(c4ccccc4)CCCCCC3)CC2)CC1` (as salt: HCl) stands 208 to 212 °C. Under `N=C(N)NCCNc1nc2ccccc2n1C1CCN(C2(c3ccccc3)CCCCCC2)CC1` (as salt: salt) stands 215 to 218 °C. In turn, `NCCNc1nc2ccccc2n1C1CCN(C2(c3ccccc3)CCCCCC2)CC1` (as salt: HCl) registered a melting point of 228 to 232 °C. Under `c1ccc(CN2CCN(c3nc4ccccc4n3C3CCN(C4(c5ccccc5)CCCCCC4)CC3)CC2)cc1` (as salt: HCl) stands 139 to 143 °C. The compound `c1ccc(C2(N3CCC(n4c(N5CCCCC5)nc5ccccc54)CC3)CCCCCC2)cc1` (as salt: HCl) registered a melting point of 177 to 180 °C. Next, `Clc1nc2ccccc2n1C1CCN(C2(c3ccccc3)CCCCCC2)CC1` (as salt: HCl): 153 to 156 °C; `NCCOc1nc2ccccc2n1C1CCN(C2(c3ccccc3)CCCCCC2)CC1` (as salt: HCl): 180 to 184 °C; `NC1CCN(c2nc3ccccc3n2C2CCN(C3(c4ccccc4)CCCCCC3)CC2)CC1` (as salt: HCl): 225 to 228 °C.

Turning to `c1ccc(N2CCN(c3nc4ccccc4n3C3CCN(C4(c5ccccc5)CCCCCC4)CC3)CC2)cc1` (as salt: HCl), the melting point is 188 to 192 °C.

In turn, `CNC(C)Nc1nc2ccccc2n1C1CCN(C2(c3ccccc3)CCCCCC2)CC1` (stereo not shown) (as salt: HCl) displayed a melting point of 173 to 177 °C. Under `CN(C)CCNc1nc2ccccc2n1C1CCN(C2(c3ccccc3)CCCCCC2)CC1` (as salt: HCl) stands 188 to 192 °C; under `c1ccc(C2(N3CCC(n4c(N5CCNCC5)nc5ccccc54)CC3)CCCCCC2)cc1` (as salt: HCl), 159 to 163 °C; under `NCC(=O)Nc1nc2ccccc2n1C1CCN(C2(c3ccccc3)CCCCCCC2)CC1` (as salt: HCl), 217 to 221 °C. Next, `O=C1CCN(c2nc3ccccc3n2C2CCN(C3(c4ccccc4)CCCCCC3)CC2)CC1` (as salt: HCl): 168 to 172 °C; `c1ccc(C2(N3CCC(n4c(N5CCOCC5)nc5ccccc54)CC3)CCCCCC2)cc1` (as salt: HCl): 172 to 176 °C.

In turn, `ON=C1CCN(c2nc3ccccc3n2C2CCN(C3(c4ccccc4)CCCCCC3)CC2)CC1` (as salt: fumaric acid salt) gave a melting point of 201 to 204 °C. For the compound `c1ccc(C2(N3CCC(n4c(OC5CCNCC5)nc5ccccc54)CC3)CCCCCC2)cc1` (as salt: HCl), the melting point was in the range of 114 to 118 °C.

The compound `c1ccc(C2(N3CCC(n4c(N5CCCC5)nc5ccccc54)CC3)CCCCCC2)cc1` (as salt: HCl) yielded a melting point of 178 to 181 °C. `CSc1nc2ccccc2n1C1CCN(C2(c3ccccc3)CCCCCC2)CC1` (as salt: HCl) came in with a melting point of 168 to 171 °C. As for `c1ccc(C2(N3CCC(n4c(NC5CCNCC5)nc5ccccc54)CC3)CCCCCC2)cc1` (as salt: HCl), the melting point lay in the range of 231 to 235 °C. Regarding `CCCCCNc1nc2ccccc2n1C1CCN(C2(c3ccccc3)CCCCCC2)CC1` (as salt: HCl), the melting point fell in the range of 156 to 159 °C.
